Experimental data as given in publication PMC5564622 (Oncotarget, 2017).
Where two headings read alike, the source gives them in different places.

Experiments:
[1] = test system: MDR in colon cancer; assay: Preliminary experiment on Chansu ingredients and MDR; assay type: cell-based; details: six active ingredients of Chansu
[2] = test system: LoVo cells; assay: cells; assay type: cell-based, human
Method: (§1) The human colon cancer cell lines LoVo, HCT8, Caco-2 were obtained from the Cell Bank of the Chinese Academy of Sciences. DOX-selected ABCB1-overexpression LoVo/ADR, HCT8/ADR, Caco-2/ADR cell lines were purchased from Shanghai Yan Sheng Industrial Co., LTD. […] All the DOX-selected ABCB1-overexpression cells were seeded in a medium containing 1μM of DOX to maintain their drug resistance phenotype.

[3] = test system: HCT8 cells; assay: cells; assay type: cell-based, human
Method: as §1

[4] = test system: HCT8/pcDNA3.1 cells; assay: cells; assay type: cell-based, human
Method: (§2) HCT8/pcDNA3.1 and HCT8/ABCB1 cells were established by transfecting HCT8 with empty pcDNA3.1 or vector containing the full length ABCB1, and were cultured in medium with 2 mg/ml G418.

[5] = test system: LoVo/ADR cells (ABCB1-overexpressing)
Method: as §1

[6] = test system: HCT8/ADR cells (ABCB1-overexpressing)
Method: as §1

[7] = test system: HCT8/ABCB1 cells (ABCB1-transfected)
Method: as §2

[8] = Toxicity analysis in xenograft mice; assay type: in vivo, athymic nude mice (BALB/c-nu/nu)
Method: Normal tissues (heart, liver, lung, spleen, kidney, intestine) were harvested for H&E histology studies. Venous blood samples were collected in EDTA-coated tubes for hematology studies. Samples were analyzed for white blood cells (WBC), red blood cells (RBC), platelets (PLT), aspartate aminotransferase (AST), alanine aminotransferase (ALT) and blood urea nitrogen (BUN) in the clinical laboratory at our hospital.

[9] = test system: LoVo/ADR cells (ABCB1-overexpressing); assay: cells; details: Homo sapiens
Method: as §1

[10] = test system: HCT8/ADR cells (ABCB1-overexpressing); assay: cells; details: Homo sapiens
Method: as §1

[11] = test system: HCT8/ABCB1 cells (ABCB1-transfected); assay: cells; details: Homo sapiens
Method: as §2

[12] = test system: HCT8/ADR xenografts; assay: HCT8/ADR nude mouse xenograft model; details: for tumor size versus saline: q3d×5, alone
[13] = test system: ABCB1; assay: ABCB1-mediated drug transport assay (Caco-2 monolayer); details: human
Method: Caco-2 cells were seeded on a Costar 12-well Transwell Permeable Supports plates (0.4 μm pore size, 1.13 cm^2 of growth area, 12 mm diameter) at a density of 5.0×10^4cells/cm^2. Replaced the medium every other day and incubate plates at 37°C for 21 days. Transepithelial electrical resistance (TEER) and Lucifer yellow permeability (LY%) was measured to evaluate the integrity of the monolayer. […] Cells were washed 3 times with HBSS buffer and preincubated for 15 min. Test drugs were diluted in HBSS with 0.5 ml added to the apical side (A) or 1.5 ml to the basolateral side (B). […] Analyte concentrations were determined by Thermo Varioskan Flash.
The apparent permeability coefficient (Papp) was determined for both A to B and B to A directions by the following formula: Papp=dC/dt×V/AC0 in which A is the area of filter membrane, C0 represents the initial concentration of drug, dC/dt is the change of concentration of drug in the period of incubation time, and V is the volume of the receiver chamber. The efflux ratio (ER) was calculated from: ER=Papp(B to A)/Papp (A to B)

[14] = test system: LoVo/ADR, HCT8/ADR, HCT8/ABCB1 and Caco-2/ADR cells and parental cells; assay: CCK-8 cytotoxicity of BU (non-toxic concentrations); assay type: cell-based, human; details: MDR and parental cells
[15] = Homo sapiens, HCT-8, 48 h, read-out: IC50 of DOX
[16] = HCT-8, 48 h, read-out: IC50 of DOX
[17] = Homo sapiens, HCT-8, read-out: IC50 of MIT

For `CC(=O)O[C@H]1[C@H]2O[C@]23[C@@H]2CC[C@@H]4C[C@@H](O)CC[C@]4(C)[C@H]2CC[C@]3(C)[C@H]1c1ccc(=O)oc1` [cinobufagin], the “effect on MDR” value [1] was “could effectively reverse MDR”.

Compound “5(6)-carboxy-2′,7′-dichlorofluorescein [CDCF]” has an IC50 ([2]; CDCF alone, read-out: IC50 of CDCF) of 1020 ± 110 µM, an IC50 ([3]; HCT8, CDCF alone, read-out: IC50 of CDCF) of 700 ± 100 µM and an IC50 ([4]; HCT8/pcDNA3.1, CDCF alone, read-out: IC50 of CDCF) of 910 ± 180 µM. For the same compound, the IC50 ([5]; read-out: IC50 of CDCF, LoVo/ADR, CDCF alone) was 1130 ± 50 µM, the IC50 ([6]; read-out: IC50 of CDCF, HCT8/ADR, CDCF alone) was 960 ± 160 µM and the IC50 ([7]; read-out: IC50 of CDCF, HCT8/ABCB1, CDCF alone) was 1080 ± 140 µM.

In the case of `COc1cccc2c1C(=O)c1c(O)c3c(c(O)c1C2=O)C[C@@](O)(C(=O)CO)C[C@@H]3O[C@H]1C[C@H](N)[C@H](O)[C@H](C)O1` [DOX, doxorubicin], the “fold-reversal of MDR” value ([2]; DOX alone (reference)) is reported as 1.00, the IC50 ([2]; Homo sapiens, 48 h, read-out: IC50 of DOX) is reported as 1.87 ± 0.15 µM and the “fold-reversal of MDR” value ([3]; HCT8, DOX alone (reference)) is reported as 1.00. For the same compound, the IC50 [3, 15] was 0.55 ± 0.14 µM, the “fold-reversal of MDR” value ([4]; HCT8/pcDNA3.1, DOX alone (reference)) was 1.00 and the IC50 [4, 15] was 0.67 ± 0.12 µM. The “significant toxicity: deaths” value ([8]; DOX 0.5 mg/kg and DOX 1.0 mg/kg groups, with weight loss) was 2 deaths out of 6 mice, the “alanine transaminase (ALT) and aspartate transaminase (AST)” value ([8]; high concentration DOX (0.5, 1.0 mg/kg)) was “significantly elevated” and the “fold-reversal of MDR” value [5] was 16.28 ± 0.54 (1.00). For the same compound, the “fold-reversal of MDR” value [6] was 7.20 ± 0.80 (1.00), the “fold-reversal of MDR” value [7] was 13.35 ± 1.15 (1.00) and the IC50 ([9]; 48 h, read-out: IC50 of DOX) was 16.3 ± 0.54 µM. The IC50 [10, 16] was 7.2 ± 0.8 µM, the IC50 [11, 16] was 13.3 ± 1.15 µM and the “tumor size versus saline” value ([12]; DOX 0.1 mg/kg, i.p.) was “No significant difference”. The tumor growth inhibition ([12]; DOX 0.1, 0.5, 1.0 mg/kg, i.p., q3d×5) was “inhibit tumor growth with a concentration-dependent pattern”, the Papp A→B at 120 min, 20 μM [13] was 0.68 ± 0.18 ×10⁻⁶ cm/s and the Papp B→A at 120 min, 20 μM [13] was 3.91 ± 0.68 ×10⁻⁶ cm/s. For the same compound, the efflux ratio at 120 min, 20 μM [13] was 5.75.

In the case of `C[C@]12CC[C@H](O)C[C@H]1CC[C@@H]1[C@@H]2CC[C@]2(C)[C@@H](c3ccc(=O)oc3)CC[C@]12O` [BU, Bufalin], the “non-toxic concentration (survival rate higher than 80%), maximum for reversal assays” value [14] is reported as “up to 20 nM”, the toxicity on mice ([8]; BU 0.1mg/kg) is reported as “did not induce any toxicity” and the “effect on MDR” value [1] is reported as “could effectively reverse MDR”. The “tumor size versus saline” value ([12]; BU 0.1 mg/kg, i.p.) was “No significant difference” and the “ABCB1 expression in tumor tissue (IHC)” value ([12]; HCT8/ADR xenografts, BU 0.1 mg/kg) was “inhibit ABCB1 expression in vivo”.

For `O=C1c2c(O)ccc(O)c2C(=O)c2c(NCCNCCO)ccc(NCCNCCO)c21` [MIT, mitoxantrone], the IC50 ([2]; Homo sapiens, read-out: IC50 of MIT) was 1.05 ± 0.09 µM, the IC50 [3, 17] was 0.85 ± 0.15 µM and the IC50 [4, 17] was 0.88 ± 0.28 µM. It also gave an IC50 ([9]; read-out: IC50 of MIT) of 1.23 ± 0.08 µM, an IC50 ([10]; HCT-8, read-out: IC50 of MIT) of 1.02 ± 0.28 µM and an IC50 ([11]; HCT-8, read-out: IC50 of MIT) of 1 ± 0.2 µM.
